In this test the target is PIK3CA (human) (UniProt P42336). As to the kind of experiment: Inhibition of PIK3CA Kinase Activity.
Chain of PIK3CA (human) (P42336 whole entry, looked up): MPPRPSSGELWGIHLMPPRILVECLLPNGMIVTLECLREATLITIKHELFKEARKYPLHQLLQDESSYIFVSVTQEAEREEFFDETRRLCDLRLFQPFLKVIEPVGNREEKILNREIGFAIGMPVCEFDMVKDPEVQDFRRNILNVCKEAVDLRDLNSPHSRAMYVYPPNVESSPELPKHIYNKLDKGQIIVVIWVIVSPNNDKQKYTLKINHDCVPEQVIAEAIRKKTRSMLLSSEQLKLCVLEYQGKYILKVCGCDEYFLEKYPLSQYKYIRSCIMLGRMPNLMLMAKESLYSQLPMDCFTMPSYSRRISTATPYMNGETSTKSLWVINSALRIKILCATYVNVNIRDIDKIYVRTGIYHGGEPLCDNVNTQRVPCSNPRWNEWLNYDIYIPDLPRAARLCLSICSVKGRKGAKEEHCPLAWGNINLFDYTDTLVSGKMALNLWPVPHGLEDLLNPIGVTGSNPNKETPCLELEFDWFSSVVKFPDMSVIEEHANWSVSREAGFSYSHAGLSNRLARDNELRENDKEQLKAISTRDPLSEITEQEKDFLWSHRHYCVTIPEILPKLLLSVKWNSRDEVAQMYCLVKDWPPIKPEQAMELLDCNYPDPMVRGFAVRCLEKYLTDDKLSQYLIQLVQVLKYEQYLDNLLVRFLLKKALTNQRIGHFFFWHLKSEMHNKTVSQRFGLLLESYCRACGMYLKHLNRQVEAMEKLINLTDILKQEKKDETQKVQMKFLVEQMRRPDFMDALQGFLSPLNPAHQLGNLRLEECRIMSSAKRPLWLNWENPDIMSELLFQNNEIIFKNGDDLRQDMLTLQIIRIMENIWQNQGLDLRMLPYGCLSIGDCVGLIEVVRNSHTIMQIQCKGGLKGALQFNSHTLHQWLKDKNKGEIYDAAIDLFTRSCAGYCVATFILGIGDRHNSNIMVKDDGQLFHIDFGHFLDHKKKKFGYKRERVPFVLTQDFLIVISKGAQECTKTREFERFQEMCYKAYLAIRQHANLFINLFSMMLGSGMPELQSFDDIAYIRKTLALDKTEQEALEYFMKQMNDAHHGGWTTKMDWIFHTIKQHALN
Broadly, the IC50 is the concentration at which inhibition is half-maximal. High values mean lower potency, low ones higher potency. Take `COc1cc2c(N3CCOc4ccc(-c5ccc6nc(C)[nH]c6c5)cc4C3)ncnc2cc1Br`: the IC50 was 250 to 1000 nM. In the case of `Cc1nc2ncc(-c3ccc4c(c3)CN(c3ncnc5c3CCC(C(C)O)C5)CCO4)cc2[nH]1` (stereo not drawn) it was 10 to 50 nM; in that of `Cc1nc(Nc2ccccc2)c(C)c(N2CCOc3ccc(-c4cnc5nc[nH]c5c4)cc3C2)n1`, 10 to 50 nM; in that of `Cc1nc2cc(-c3ccc4c(c3)CN(c3nc(CN(C)C)nc(C)c3C)CCO4)cnc2[nH]1`, 10 to 50 nM. In the case of `COc1cc2c(N3CCOc4ccc(-c5ccc6nc(C)[nH]c6c5)cc4C3)ncnc2c(OC)c1OC` it was 50 to 250 nM; in that of `Cc1nc2ccc(-c3ccc4c(c3)CN(c3ncnc5ccc(S(C)(=O)=O)cc35)CCO4)cc2[nH]1`, 250 to 1000 nM; in that of `Cc1nc2cc(-c3ccc4c(c3)CN(c3nc(N)nc(C)c3Cc3ccc(F)cc3)CCO4)cnc2[nH]1`, ≤ 10 nM. For `Cc1nc2ncc(-c3ccc4c(c3)CN(c3ncnc5c3CCC(CO)C5)CCO4)cc2[nH]1` (stereo not drawn) the value was 10 to 50 nM; for `CCCc1nc2cc(-c3ccc4c(c3)CN(c3ncnc5c3CC(C)(C)CC5)CCO4)cnc2[nH]1`, 50 to 250 nM. `CC1(C)CCc2ncnc(N3CCOc4ccc(-c5cncc(NS(C)(=O)=O)c5)cc4C3)c2C1` gave an IC50 of 50 to 250 nM. In the case of `Cc1nc2c(c(N3CCOc4ccc(-c5cnc6nc(C)[nH]c6c5)cc4C3)n1)CC(C)(C)CC2` it was 10 to 50 nM; in that of `Cc1nc(CN(C)C)nc(N2CCOc3ccc(-c4cnc5sc(N)nc5c4)cc3C2)c1C`, ≤ 10 nM.

The compound `CC(C)(O)CCS(=O)(=O)c1cc(-c2ccc3c(c2)CN(c2ncnc4c2CC(C)(C)CC4)CCO3)cnc1N` came in with an IC50 of 10 to 50 nM. In the case of `Cc1nc2ccc(-c3ccc4c(c3)CN(c3ncnc5ccc(O)cc35)CCO4)cc2[nH]1` it was 50 to 250 nM. For `COc1ccc2c(N3CCOc4ccc(-c5cnc(Cl)c(NS(C)(=O)=O)c5)cc4C3)ncnc2c1` the value was ≤ 10 nM; for `CCc1c(C)nc(CN(C)C)nc1N1CCOc2ccc(-c3cnc4sc(N)nc4c3)cc2C1`, ≤ 10 nM; for `CN1CCN(S(=O)(=O)c2cc(-c3ccc4c(c3)CN(c3ncnc5c3CC(C)(C)CC5)CCO4)cnc2N)CC1`, 50 to 250 nM. For `COc1cc2ncnc(N3CCOc4ccc(-c5cnc6nc(N)[nH]c6c5)cc4C3)c2cc1OC` the value was ≤ 10 nM; for `COc1ccc2c(N3CCOc4ccc(-c5cnc(N)c([S+]([O-])C[C@@H](C)CO)c5)cc4C3)ncnc2c1` (stereo partly drawn), 10 to 50 nM; for `COc1cc2ncnc(N3CCOc4ccc(-c5ccc6nc(C)[nH]c6c5)cc4C3)c2cc1OC`, 50 to 250 nM. Consider `CC[C@H]1CCc2c(nc(C)nc2N2CCOc3ccc(-c4cnc(N)c(S(=O)(=O)N5CCC(C)(N)C5)c4)cc3C2)C1` (stereo partly drawn), for which the IC50 is ≤ 10 nM.

Regarding `CN(CCO)S(=O)(=O)c1cc(-c2ccc3c(c2)CN(c2ncnc4c2CC(C)(C)CC4)CCO3)cnc1N`, the IC50 was ≤ 10 nM. The compound `CCOc1ccc2ncnc(N3CCOc4ccc(-c5ccc6nc(C)[nH]c6c5)cc4C3)c2c1` came in with an IC50 of 50 to 250 nM. In the case of `Cc1nc2ccc(-c3ccc4c(c3)CN(c3ncnc5sccc35)CCO4)cc2[nH]1` it was 250 to 1000 nM; in that of `Cc1ccc2ncnc(N3CCOc4ccc(-c5cnc6nc(N)[nH]c6c5)cc4C3)c2c1`, ≤ 10 nM.

For `CC1(C)CCc2ncnc(N3CCOc4ccc(-c5cnc6sc(N)nc6c5)cc4C3)c2C1`, the IC50 fell in the range of 10 to 50 nM.

Take `CN1CCC(CNS(=O)(=O)c2cc(-c3ccc4c(c3)CN(c3ncnc5c3CC(C)(C)CC5)CCO4)cnc2N)CC1`: the IC50 lay in the range of 10 to 50 nM. In the case of `CC1(C)CCc2ncnc(N3CCOc4ccc(-c5cnc(N)c(S(=O)(=O)NCC6CCNCC6)c5)cc4C3)c2C1` it was 10 to 50 nM; in that of `CC1(C)CCc2ncnc(N3CCOc4ccc(-c5cnc(N)c(S(=O)(=O)N6CC[C@H](N)C6)c5)cc4C3)c2C1`, 10 to 50 nM. For `Cc1nc2cc(-c3ccc4c(c3)CN(c3nc(CF)nc5c3CC(C)(C)CC5)CCO4)ccc2[nH]1` the value was 10 to 50 nM. In the case of `Cc1nc2ccc(-c3ccc4c(c3)CN(c3ncnc5ccc(OCC#N)cc35)CCO4)cc2[nH]1` it was 10 to 50 nM.

For the compound `CC1(C)CCc2ncnc(N3CCOc4ccc(-c5cnc(N)c(S(=O)(=O)NC(C)(C)CO)c5)cc4C3)c2C1`, the IC50 lay within 50 to 250 nM.

Turning to `Cc1nc2cc(-c3ccc4c(c3)CN(c3nc(CO)nc(C)c3Cc3ccc(F)cc3)CCO4)ccc2[nH]1`, the IC50 is ≤ 10 nM.

For `CC(C)(O)CC[S+]([O-])c1cc(-c2ccc3c(c2)CN(c2ncnc4c2CC(C)(C)CC4)CCO3)cnc1N` (stereo not drawn), the IC50 fell in the range of 50 to 250 nM. For `CC[C@H]1CCc2c(ncnc2N2CCOc3ccc(-c4cnc(N)c(S(=O)(=O)NCC(C)(C)N)c4)cc3C2)C1` the value was 10 to 50 nM; for `CN(C)Cc1nc2c(c(N3CCOc4ccc(-c5cnc(Cl)c(NS(C)(=O)=O)c5)cc4C3)n1)CC(C)(C)CC2`, ≤ 10 nM; for `COc1ccc(-c2ccc3c(c2)CN(c2nc(CN(C)C)nc4c2CC(C)(C)CC4)CCO3)cc1OC(F)F`, 10 to 50 nM. Compound `Cc1nc2ncc(-c3ccc4c(c3)CN(c3ncnc(Cl)c3C)CCO4)cc2[nH]1` displayed an IC50 of 50 to 250 nM. In the case of `Cc1nc2ccc(-c3ccc4c(c3)CN(c3ncnc5c3CC(C)C5)CCO4)cc2[nH]1` (stereo not drawn) it was 50 to 250 nM; in that of `CCNc1nc2ncc(-c3ccc4c(c3)CN(c3nc(C)nc5c3CC(C)(C)CC5)CCO4)cc2[nH]1`, ≤ 10 nM; in that of `Cc1nc2ncc(-c3ccc4c(c3)CN(c3nc(CNCC(C)C)nc5c3CC(C)(C)CC5)CCO4)cc2[nH]1`, 10 to 50 nM.

For `CC1(C)CCc2ncnc(N3CCOc4ccc(-c5cnc(N)c(S(=O)(=O)N6CCCC(O)C6)c5)cc4C3)c2C1` (stereo not drawn), the IC50 fell in the range of 10 to 50 nM. In the case of `Cc1nc2ncc(-c3ccc4c(c3)CN(c3ncnc(N5CCOCC5)c3C)CCO4)cc2[nH]1` it was 50 to 250 nM; in that of `Cc1nc2ncc(-c3ccc4c(c3)CN(c3nc(CNC(C)C5CC5)nc5c3CC(C)(C)CC5)CCO4)cc2[nH]1` (stereo not drawn), 10 to 50 nM; in that of `COc1ccc2c(N3CCOc4ccc(-c5ccc6[nH]cnc6c5)cc4C3)nc(CN(C)C)nc2c1`, ≤ 10 nM. In the case of `Cc1ncnc(N2CCOc3ccc(-c4cc5[nH]c(N)nc5cn4)cc3C2)c1Cc1ccc(F)cc1` it was 50 to 250 nM; in that of `Cc1nc2cc(-c3ccc4c(c3)CN(c3nc(CN(C)C)nc(C)c3CC(C)C)CCO4)ccc2[nH]1`, 250 to 1000 nM. For `CCNc1nc2ccc(-c3ccc4c(c3)CN(c3cc(Nc5ccc(OC)cc5)ncn3)CCO4)cc2[nH]1` the value was 250 to 1000 nM; for `CC1(C)CCc2ncnc(N3CCOc4ccc(-c5cnc(N)c(S(=O)(=O)NCC(N)=O)c5)cc4C3)c2C1`, 10 to 50 nM.

For the compound `CC1(C)CCc2ncnc(N3CCOc4ccc(-c5cnc(N)c(S(=O)(=O)NC[C@H]6CCCNC6)c5)cc4C3)c2C1`, the IC50 lay within 50 to 250 nM. For `CN(C)S(=O)(=O)c1cc(-c2ccc3c(c2)CN(c2ncnc4c2CC(C)(C)CC4)CCO3)cnc1N` the value was 10 to 50 nM; for `COC(=O)Nc1nc2ccc(-c3ccc4c(c3)CN(c3nc(C)nc5ccccc35)CCO4)cc2[nH]1`, 10 to 50 nM.

Consider `Cc1nc2cc(-c3ccc4c(c3)CN(c3nc(CN5CCCC5)nc5c3CC(C)(C)CC5)CCO4)cnc2[nH]1`, for which the IC50 was ≤ 10 nM. For `COc1cc2nccc(N3CCOc4ccc(-c5ccc6nc(N)[nH]c6c5)cc4C3)c2cc1OC` the value was 10 to 50 nM; for `Cc1nc2ccc(-c3ccc4c(c3)CN(c3cc(-c5ccccc5)nc5ccccc35)CCO4)cc2[nH]1`, 50 to 250 nM. `Cc1nc2ncc(-c3ccc4c(c3)CN(c3ncnc(N5CCC5)c3C)CCO4)cc2[nH]1` had an IC50 of 50 to 250 nM. In the case of `Cc1nc(CN(C)C)nc(N2CCOc3ccc(-c4ccc5scnc5c4)cc3C2)c1Cc1ccc(F)cc1` it was 250 to 1000 nM. In the case of `CC1=Cc2ncnc(N3CCOc4ccc(-c5cnc(N)c(S(=O)(=O)N6CC[C@@H](N)C6)c5)cc4C3)c2CC1(C)C` it was 10 to 50 nM. Regarding `CCNc1nc2ccc(-c3ccc4c(c3)CN(c3ncnc(NCC)c3C)CCO4)cc2[nH]1`, the IC50 was ≤ 10 nM. For `Cc1nc2ccc(-c3ccc4c(c3)CN(c3nccc5ccccc35)CCO4)cc2[nH]1` the value was 50 to 250 nM. For `Cc1nc2cc(-c3ccc4c(c3)CN(c3nc([C@@H]5CCCN5)nc5c3CC(C)(C)CC5)CCO4)cnc2[nH]1` the value was 10 to 50 nM; for `CC1(C)CCc2ncnc(N3CCOc4ccc(-c5cnc(N)c(S(=O)(=O)NCC6(N)CC6)c5)cc4C3)c2C1`, 50 to 250 nM; for `CCc1ncnc(N2CCOc3ccc(-c4ccc5nc(C)[nH]c5c4)cc3C2)c1CC`, 50 to 250 nM. `CC1(C)CCc2ncnc(N3CCOc4ccc(-c5cnc(C(N)=O)c(N)c5)cc4C3)c2C1` returned an IC50 of 250 to 1000 nM. In the case of `c1cc(N2CCOc3ccc(-c4ccc5nc[nH]c5c4)cc3C2)ncn1` it was 250 to 1000 nM.

`CCOc1ncc(-c2ccc3c(c2)CN(c2ncnc4c2CC(C)(C)CC4)CCO3)cc1NS(C)(=O)=O` gave an IC50 of 50 to 250 nM.

`Cc1nc2cc(-c3ccc4c(c3)CN(c3nc(CN(C)C)nc(C)c3-c3ccccc3)CCO4)ccc2[nH]1` displayed an IC50 of 50 to 250 nM. For `COc1ccc2c(N3CCOc4ccc(-c5ccc6c(c5)CC(=O)N6)cc4C3)nc(C)nc2c1` the value was 250 to 1000 nM; for `Cc1ncnc(N2CCOc3ccc(-c4cnc5nc(N)[nH]c5c4)cc3C2)c1Cc1ccc(F)cc1`, ≤ 10 nM; for `Cc1nc2cc(-c3ccc4c(c3)CN(c3nc(CN(C)C)ncc3C(C)C)CCO4)ccc2[nH]1`, 10 to 50 nM.

Compound `Cc1nc2cc(-c3ccc4c(c3)CN(c3nc(C(C)N)nc5c3CC(C)(C)CC5)CCO4)ccc2[nH]1` (stereo not drawn) yielded an IC50 of 10 to 50 nM. In the case of `CC(N)CNS(=O)(=O)c1cc(-c2ccc3c(c2)CN(c2ncnc4c2CC(C)(C)CC4)CCO3)cnc1N` (stereo not drawn) it was 50 to 250 nM; in that of `Cc1nc2ccc(-c3ccc4c(c3)CN(c3ccnc(N)n3)CCO4)cc2[nH]1`, 250 to 1000 nM; in that of `Cc1nc2c(c(N3CCOc4ccc(-c5cnc6nc(C7CC7)[nH]c6c5)cc4C3)n1)CC(C)(C)CC2`, 50 to 250 nM.

`Cc1nc2ccc(-c3ccc4c(c3)CN(c3ncnc(C)c3Cc3ccc(F)cc3)CCO4)cc2[nH]1`: the IC50 was 10 to 50 nM. For `COc1ccc2c(N3CCOc4ccc(-c5cnc6[nH]c(C)nc6c5)cc4C3)nc(C)nc2c1`, the IC50 is ≤ 10 nM. Regarding `CC1(C)CCc2ncnc(N3CCOc4ccc(-c5ccc6[nH]c(C(F)F)nc6c5)cc4C3)c2C1`, the IC50 was in the range of 10 to 50 nM.

Compound `CCc1c(C)nc(C)nc1N1CCOc2ccc(-c3cnc4nc(C)[nH]c4c3)cc2C1` had an IC50 of 50 to 250 nM.

(Values after the Kinase Knowledgebase extract (Sharma et al. 2016).)
